Results as given in paper PMC12223310, “Mining the heparinome for cryptic antimicrobial peptides that selectively kill Gram-negative bacteria” (Molecular Systems Biology, 2025).
In brackets after ≈: the same amount, converted by molar mass. Like-named read-outs stand apart in the source and are kept apart here. Ends that are not written are not given here.

Key:
[1] = tested on: Escherichia coli; format: cell-based, Escherichia coli BW25113
Procedure: (§1) Antimicrobial activities were determined by the microtiter broth dilution method recommended by the National Committee of Laboratory Safety and Standards (NCLSS), adapted for AMPs (Wiegand et al, [2008]). Briefly, overnight bacterial cell cultures were brought to an exponential growth state (OD600 = 0.4) in MH broth and diluted to a final concentration of 5 × 10^5 CFU/mL. In all, 1:2 peptide serial dilutions were prepared in 96-well polypropylene plates (Greiner, Frickenhausen, Germany), in MH medium containing 0.2% (w/v) of bovine serum albumin (BSA) and 0.02% glacial acetic acid. […] The lowest concentration with no colonies was taken as MBC. The results are the average of three independent studies.

[2] = in vitro; format: cell-based; settings: human, MRC-5 cells
Procedure: (§2) Toxicity in MRC-5 and HepG2 cells was tested by the MTT assay, as described (Bello-Madruga et al, [2023]). Cell lines were maintained in Eagle’s minimum essential medium (MEMα) supplemented with 10% fetal bovine serum (FBS). Cells were cultured in 75-cm^2 flasks and then transferred to polystyrene 96-well plates, at 3 × 10^4 cells per well, and incubated overnight for attachment to the well surface. Then culture media was removed and 1:2 peptide serial dilutions in MEMα were added to each well and later incubated for 4 h. After incubation, peptides were removed and 100 μL of 0.5 mg/mL MTT staining solution in MEMα supplemented with 10% FBS was added to cells and incubated for 1.5 h at 37 °C. Formazan crystals in living cells were detected after disruption with 200 μL dimethyl sulfoxide and then absorbance was measured at 570 nm in a Tecan Spark instrument (Tecan, Männedorf, Switzerland). The results are the average of three independent studies.

[3] = tested on: Enterococcus faecium; format: cell-based, Enterococcus faecium ATCC 19434
Procedure: as §1

[4] = tested on: Staphylococcus aureus; format: cell-based, Staphylococcus aureus ATCC 12600
Procedure: as §1

[5] = tested on: Pseudomonas sp (Pseudomonas aeruginosa); format: cell-based, Pseudomonas aeruginosa ATCC 15915
Procedure: as §1

[6] = tested on: Acinetobacter baumannii; format: cell-based, Acinetobacter baumannii ATCC 15308
Procedure: as §1

[7] = tested on: Listeria monocytogenes; format: cell-based, Listeria monocytogenes ATCC 19112
Procedure: as §1

[8] = Cytotoxicity, MTT assay; format: cell-based; settings: human, HepG2 cells, 4 h peptide incubation in MEMα, average of three studies, read-out: LC50 (HepG2 cells)
Procedure: as §2

[9] = tested on: A. baumannii 3878; format: cell-based
Procedure: as §1

[10] = tested on: P. aeruginosa 827651; format: cell-based
Procedure: as §1

[11] = tested on: P. aeruginosa 827632; format: cell-based
Procedure: as §1

[12] = tested on: E. coli CFT073; format: cell-based
Procedure: as §1

[13] = tested on: A. baumannii 3880; format: cell-based
Procedure: as §1

[14] = tested on: E. coli 1166795; format: cell-based
Procedure: as §1

[15] = tested on: horse erythrocytes; format: cell-based
Procedure: Peptide toxicity was tested on horse erythrocytes (Sandín et al, [2021]). Horse defibrinated blood was washed three times in phosphate buffer saline (PBS) pH 7.2 by centrifugation at 3× 3000 rpm for 10 min, to remove excess hemoglobin in the supernatant and then diluted tenfold in PBS. Next, 50 μL of erythrocytes were added to a 1.5 mL polypropylene tube and incubated with 50 μL of a 1:2 peptide serial dilution in PBS. An erythrocyte disruption (ED) control was prepared by adding 50 μL of 0.1% TritonX-100 in PBS instead of the peptides and an intact erythrocyte (IC) control by adding 50 μL of PBS alone. All samples and controls were incubated for 2 h at 37 °C. Samples were centrifuged at 3000 rpm for 3 min, and the supernatants were transferred to a polystyrene 96-well plate and inspected for ED by reading the absorbance at 540 nm in a Tecan Spark instrument (Tecan, Männedorf, Switzerland). The results are the average of three independent studies. The hemolysis percentage was calculated as: Hemolysis%=Sample−IC/ED−IC×100

| Compound | MBC E. faecium [3] | MIC E. faecium [3] | MBC S. aureus [4] | MIC S. aureus [4] | MBC Pseudomonas sp [5] | MIC Pseudomonas sp [5] | MBC A. baumannii [6] | MIC A. baumannii [6] | MBC L. monocytogenes [7] | MIC L. monocytogenes [7] | CC50 at 4 h [8] | MBC E. coli [1] | MIC E. coli [1] | CC50 at 4 h [2] | MBC A. baumannii 3878 [9] | MIC A. baumannii 3878 [9] | MBC P. aeruginosa 827651 [10] | MIC P. aeruginosa 827651 [10] | MBC P. aeruginosa 827632 [11] | MIC P. aeruginosa 827632 [11] | other results |
| --- | --- | --- | --- | --- | --- | --- | --- | --- | --- | --- | --- | --- | --- | --- | --- | --- | --- | --- | --- | --- | --- |
| CC[C@H](C)[C@H](NC(=O)[C@H](CCCCN)NC(=O)[C@H](CCC(=O)O)NC(=O)[C@H](CCCCN)NC(=O)[C@H](CO)NC(=O)[C@H](CCCCN)NC(=O)[C@H](CCCNC(=N)N)NC(=O)[C@H](Cc1ccccc1)NC(=O)[C@H](Cc1ccccc1)NC(=O)[C@H](CC(=O)O)NC(=O)CNC(=O)[C@H](CC(C)C)NC(=O)[C@@H](N)CC(C)C)C(=O)NCC(=O)N[C@@H](CCCCN)C(=O)N[C@@H](CCC(=O)O)C(=O)N[C@@H](Cc1ccccc1)C(=O)N[C@@H](CCCCN)C(=O)N[C@@H](CCCNC(=N)N)C(=O)N[C@H](C(=O)N[C@H](C(=O)N[C@@H](CCC(N)=O)C(=O)N[C@@H](CCCNC(=N)N)C(=O)N[C@H](C(=O)N[C@@H](CCCCN)C(=O)N[C@@H](CC(=O)O)C(=O)N[C@@H](Cc1ccccc1)C(=O)N[C@@H](CC(C)C)C(=O)N[C@@H](CCCNC(=N)N)C(=O)N[C@@H](CC(N)=O)C(=O)N[C@@H](CC(C)C)C(=O)N[C@H](C(=O)N1CCC[C@H]1C(=O)N[C@@H](CCCNC(=N)N)C(=O)N[C@H](C(=O)N[C@@H](CCC(=O)O)C(=O)N[C@@H](CO)C(N)=O)[C@@H](C)O)C(C)C)[C@@H](C)CC)C(C)C)[C@@H](C)CC [LL-37, reference compound] | 3.1 µM (≈ 13.9 µg/mL) | 0.8 µM (≈ 3.59 µg/mL) | 25 µM (≈ 112 µg/mL) | 25 µM (≈ 112 µg/mL) | 0.8 µM (≈ 3.59 µg/mL) | 0.8 µM (≈ 3.59 µg/mL) | 6.3 µM (≈ 28.3 µg/mL) | 6.3 µM (≈ 28.3 µg/mL) | 3.1 µM (≈ 13.9 µg/mL) | 0.8 µM (≈ 3.59 µg/mL) | 53 µM |  |  |  |  |  |  |  |  |  | MBC E. coli ([1]; MIC wells plated on LB agar, overnight 37 °C, no colonies, average of three studies): 3.1 µM (≈ 13.9 µg/mL); MIC E. coli ([1]; microtiter broth dilution, MH broth, 5 × 10^5 CFU/mL, overnight 37 °C, average of three studies): 1.6 µM (≈ 7.19 µg/mL); CC50 at 4 h ([2]; MTT, 4 h peptide incubation in MEMα, average of three studies, read-out: LC50 (MRC-5 cells)): 26 µM |
| FRFKRKLPKYLLF-NH2 [HBP-3] | >100/ > 100 µM | >100/ > 100 µM | 50 µM | 25 µM | 6.3 µM | 6.3 µM | 0.8 µM | 0.8 µM | 12.5 µM | 6.3 µM | > 200 µM | 3.1 µM | 3.1 µM | > 200 µM | 6.3 µM | 6.3 µM | 12.5 µM | 12.5 µM | 25 µM | 25 µM | MBC E. coli CFT073 [12]: 25 µM; MIC E. coli CFT073 [12]: 12.5 µM; MBC A. baumannii 3880 [13]: 6.3 µM; MIC A. baumannii 3880 [13]: 6.3 µM; MBC E. coli 1166795 [14]: 1.6 µM; MIC E. coli 1166795 [14]: 1.6 µM |
| GWKDKKSYRWFLQHRPQVGYIRVRFY-NH2 [HBP-4] | 50 µM | 12.5 µM | 12.5 µM | 3.1 µM | 0.8 µM | 0.8 µM | 0.8 µM | 0.8 µM | 3.1 µM | 1.6 µM | 38 µM | 0.2 µM | 0.2 µM | 35 µM | 0.8 µM | 0.8 µM | 6.3 µM | 3.1 µM | 6.3 µM | 6.3 µM | MBC E. coli CFT073 [12]: 1.6 µM; MIC E. coli CFT073 [12]: 0.8 µM; MBC A. baumannii 3880 [13]: 1.6 µM; MIC A. baumannii 3880 [13]: 1.6 µM; MBC E. coli 1166795 [14]: < 0.1 µM; MIC E. coli 1166795 [14]: < 0.1 µM |
| HNLFRKLTAALFRANFGYTLRSV-NH2 [ΔCPC’] |  |  |  | 6.3 µM |  | 1.6 µM |  | 1.6 µM |  | 3.1 µM |  |  | 1.6 µM |  |  |  |  |  |  |  |  |
| HNLFRKLTHQLFRRNFGYTLRSV-NH2 [Peptide R10] |  |  |  | 6.3 µM |  | 0.8 µM |  | 0.4 µM |  | 1.6 µM |  |  | 0.4 µM |  |  |  |  |  |  |  |  |
| HNLFRKLTHRLFRQNFGYTLRSV-NH2 [Peptide R14] |  |  |  | 6.3 µM |  | 0.4 µM |  | 0.4 µM |  | 3.1 µM |  |  | 0.4 µM |  |  |  |  |  |  |  |  |
| HNLFRKLTHRLFRRNFGYTL-NH2 [HBP-5 [1–20]] |  |  |  | 6.3 µM |  | 0.4 µM |  | 0.4 µM |  | 1.6 µM |  |  | 0.4 µM | 63 ± 1 µM |  |  |  |  |  |  | Hemolysis (250 µM peptide) [15]: 24 ± 2 |
| RFYLSKKKWVMVP-NH2 [HBP-2] | >100/ > 100 µM | >100/ > 100 µM | >100/ > 100 µM | >100/ > 100 µM | 50 µM | 25 µM | 50 µM | 50 µM | > 100 µM | 37.5 µM | > 200 µM | 25 µM | 12.5 µM | > 200 µM | 50 µM | 50 µM | > 100 µM | > 100 µM | > 100 µM | > 100 µM | MBC E. coli CFT073 [12]: 100 µM; MIC E. coli CFT073 [12]: 50 µM; MBC A. baumannii 3880 [13]: > 50 µM; MIC A. baumannii 3880 [13]: > 50 µM; MBC E. coli 1166795 [14]: 12.5 µM; MIC E. coli 1166795 [14]: 12.5 µM |
| RWHLTHRPKTGYIRVLVH-NH2 [HBP-1] | ≥100/ > 100 µM | ≥100/ > 100 µM | > 100 µM | 50 µM | 3.1 µM | 3.1 µM | 1.6 µM | 1.6 µM | 12.5 µM | 6.3 µM | > 200 µM | 1.6 µM | 1.6 µM | > 200 µM | 1.6 µM | 1.6 µM | 50 µM | 25 µM | 25 µM | 25 µM | MBC E. coli CFT073 [12]: 3.1 µM; MIC E. coli CFT073 [12]: 3.1 µM; MBC A. baumannii 3880 [13]: 12.5 µM; MIC A. baumannii 3880 [13]: 12.5 µM; MBC E. coli 1166795 [14]: 1.6 µM; MIC E. coli 1166795 [14]: 1.6 µM |
